{
  "source": "paper PMC10671052",
  "about": "“Naphthyl-Substituted Indole and Pyrrole Carboxylic Acids as Effective Antibiotic Potentiators—Inhibitors of Bacterial Cystathionine γ-Lyase” (International Journal of Molecular Sciences, 2023)",
  "key": {"[1]": {"test_system": "P. aeruginosa GIMC5016:PA1840/36/2015", "experiment": "MIC of antibiotics alone and with potentiators, clinical isolate", "procedure": "Overnight (ON) culture of a specific strain was grown in the liquid Luria–Bertani nutrient medium (LB broth, BD Difco) for 18 h at 37 °C, with agitation at 180 rpm using an Innova 44R orbital shaker (Eppendorf, Hamburg, Germany). After a certain period, 50 µL of the ON culture was transferred into 5 mL of the LB medium and grown for 3 h at 37 °C with agitation. Growth in the liquid medium was assessed by means of turbidity of the suspension, measured using a Densi-La-Meter II densitometer (Erba Lachema s.r.o., Brno, Czech Republic). Then, the bacterial suspension was diluted to the concentration 10^6 cells/mL with sterile LB and used as a seed culture [38, 39].\nFor the assessment of MICs, 96-well microtiter plates were utilized at 200 µL of a medium per well. Each well was filled with 100 µL of the seed culture. After that, 10 µL of a solution of each tested synthetic compound (potentiators) was added into each experimental well. Finally, 90 µL of twofold serial dilutions of an antibiotic in a sterile LB was added into individual wells.\nAs a positive control, we set up wells with 100 µL of the bacterial culture and 100 µL of the sterile LB medium. […] Negative-control wells contained 200 µL of the sterile medium. The plates were incubated in a thermostat for 18–20 h at 37 °C. The bacterial growth was assessed as optical density at 600 nm on a CLARIOstar microplate reader (BMG LABTECH GmbH, Ortenberg, Germany))."}, "[2]": {"experiment": "HEK293 cytotoxicity assay (Alamar Blue)", "format": "cell-based", "conditions": "human, HEK293 cells, HEK293, 72 h", "description": "The HEK 293 cell line was obtained from the European Collection of Authenticated Cell Cultures (ECACC, cat. # 85120602, Salisbury, UK). The cells were grown in a monolayer culture in Dulbecco’s Modified Eagle’s Medium (DMEM) (PanEco, Moscow, Russia), supplemented with 2 mM L-glutamine, 1% of a penicillin/streptomycin solution (Capricorn Scientific, Ebsdorfergrund, Germany), and 10% of heat inactivated fetal bovine serum (HyClone, Cytiva, Marlborough, MA, USA) in a humidified atmosphere containing 5% of CO2 at 37 °C (Binder, Germany). For the assay, HEK 293 cells were seeded in a 96-well plate (Corning, NY, USA) in 100 μL of the complete culture medium, at a final density of 2 × 10^3 cells/well, and were cultured for 24 h for proper attachment. Subsequently, the medium was removed, and the cells were exposed to a tested inhibitor at different concentrations for 72 h in 100 μL of the fresh complete culture medium. The sensitivity of the cells to the compounds was detected using the vital dye Alamar Blue (Invitrogen, San Diego, CA, USA). The Alamar Blue assay was performed according to the procedure described by O’Brien et al.. After incubation with the tested bCSE inhibitors, 10 μL of the Alamar Blue reagent was added into each well, the cell culture plates were returned to the humidified incubator, and the fluorescence was read after 3 h. The plates were exposed to an excitation light of 545 nm wavelength, and emission at 600 nm was measured on the CLARIOstar Plus (BMG LABTECH GmbH, Ortenberg, Germany). To determine half-maximal cytotoxic concentration (CC50), a four-parameter sigmoidal curve model (GraphPad Prism 8 software) was fitted to the measurement data."}, "Caco-2 cell monolayer": {"test_system": "Caco-2 cell monolayer", "experiment": "Caco-2 cell permeability", "format": "in vitro ADME", "conditions": "Papp (BA) / Papp (AB); listed as lead compound", "description": "(§1) The culture medium consisted of high-glucose DMEM containing 10% of fetal bovine serum, 4 mM L-glutamine, 1% of a solution of nonessential amino acids (PanEco, Moscow, Russia), 100 U/mL penicillin, and 100 μg/mL streptomycin. The cells were maintained for 21 days at 37 °C and 5% CO2. The medium was refreshed every 3 days. A Lucifer yellow rejection assay was applied to determine cell monolayer integrity. […] The Lucifer yellow rejection value was calculated using the equation: LY % rejection = 100*(1−FIb/FIa), where FIb is the fluorescence in the basolateral compartment and FIa is the fluorescence in the apical compartment. […] Both apical-to-basolateral (AB) and basolateral-to-apical (BA) transport were assessed. For apical-to-basolateral transport, 0.3 mL of a test compound solution was added to the apical side, and 0.8 mL of HBSS with 0.5% of BSA was added to the basolateral side. For basolateral-to-apical transport, 0.8 mL of a test compound solution was added to the basolateral side and 0.3 mL of HBSS with 0.5% of BSA was added to the apical side. The Caco-2 cell monolayers were then incubated for 2 h at 37 °C. The pH values of the apical and basolateral compartments were 7.4. […] The supernatant was transferred to a vial and analyzed by liquid chromatography coupled with tandem MS (LC–MS/MS). The AB (or BA) apparent permeability coefficients (Papp, 10^–6 cm/s) were calculated according to the following formula [40, 41]: Papp = (V × ∆C)/(∆t × A × C0), where V is the volume of the receiver compartment (cm^3), C0 is the initial drug concentration in the donor compartment (μM), ∆C is the concentration in the receiver compartment (μM), ∆t is the incubation time (s), and A is the surface area of the cell monolayer (cm^2). An efflux ratio was calculated by dividing Papp (BA) by Papp (AB). All compounds were tested in duplicate."}, "Caco-2 cell permeability": {"experiment": "Caco-2 cell permeability", "format": "in vitro ADME", "conditions": "human", "description": "as §1"}, "[3]": {"experiment": "LogD7.4, miniaturized shake flask method", "format": "physicochemical", "conditions": "1-octanol / 100 mM sodium phosphate buffer pH 7.4", "description": "Coefficients of distribution between 1-octanol and 100 mM sodium phosphate buffer (pH 7.4) were determined by the miniaturized shake flask method. Namely, 5 μL of a 10 mM compound’s solution in DMSO was dissolved in 245 μL of 1-octanol saturated with phosphate buffer. Next, 500 μL of phosphate buffer saturated with 1-octanol was added, followed by mixing for 3 h. […] After that, 50 μL of the octanol phase (top layer) was aspirated and diluted with 500 μL of 1-octanol saturated with phosphate buffer. Then, the remaining octanol phase was removed; 50 μL of the buffer layer was aspirated and diluted with 500 μL of phosphate buffer saturated with 1-octanol. Both the octanol and phosphate buffer samples were analyzed by LC–MS/MS. The distribution coefficient was determined according to the following equation: logD7.4 = log10 (peak area for octanol sample/peak area for buffer sample). […] All compounds were tested in triplicate."}, "[4]": {"conditions": "P. aeruginosa GIMC5016:PA1840/36/2015, potentiator 50 µg/mL"}},
  "data": [
    {"smiles": "O=C(O)c1cc2ccccc2n1Cc1cccc2ccccc12", "note": "[Compound 2a]", "values": [
      {"measurement": "MIC of Tacillin in combination with potentiator", "setting": "[1]; P. aeruginosa GIMC5016:PA1840/36/2015, piperacillin + tazobactam, potentiator 50 µg/mL", "value": 32, "unit": "µg/mL"},
      {"measurement": "MIC of Cefepim in combination with potentiator", "setting": "[1]; [4]", "value": 32, "unit": "µg/mL"},
      {"measurement": "MIC of Gentamicin in combination with potentiator", "setting": "[1]; [4]", "value": "> 512", "unit": "µg/mL"},
      {"measurement": "MIC of Meropenem in combination with potentiator", "setting": "[1]; [4]", "value": 8, "unit": "µg/mL"},
      {"measurement": "CC50 at 72 h", "setting": "[2]", "value": "291 ± 8.11", "unit": "µM"},
      {"measurement": "Efflux ratio", "setting": "Caco-2 cell monolayer", "value": "less than 2.0"},
      {"measurement": "efflux ratio at 2 h, 10 μM", "setting": "Caco-2 cell permeability; Caco-2, Papp (BA) / Papp (AB)", "value": 1.13},
      {"measurement": "Papp A→B at 2 h, 10 μM", "setting": "Caco-2 cell permeability; Caco-2, 10 μM, 2 h, pH 7.4", "value": "43.3 ± 2.8", "unit": "×10⁻⁶ cm/s"},
      {"measurement": "Papp B→A at 2 h, 10 μM", "setting": "Caco-2 cell permeability; Caco-2, 10 μM, 2 h, pH 7.4", "value": "49.1 ± 6", "unit": "×10⁻⁶ cm/s"},
      {"measurement": "Measured logD7.4", "setting": "[3]; listed as 2а", "value": "2.14±0.14"},
      {"measurement": "Measured logD7.4", "setting": "[3]; listed as lead compound", "value": "1–3"}
    ]}
  ]
}
